These results are taken from US9927437B2, “Treating neurodegenerative disease” (THE BRIGHAM AND WOMEN'S HOSPITAL, INC., priority 2013, dated 2018).

Type in all cases: cell-based, mouse
The test system of assay [1] is primary astrocytes. Description: Activation of cultured primary astrocytes, mRNA expression. The following applies: for transcriptional response of astrocytes to LPS/IFNγ: 1 h pre-treatment (PDMP 25 μM; LacCer 10 μM), LPS 100 ng/ml and IFNγ 100 Units/ml, 6 h. The protocol:
FIGS. 3a-m. LacCer produced by B4GALT6 acts in an autocrine manner to boost astrocyte activation. Cultured astrocytes were pre-treated for 1 h with PDMP (25 μM), LacCer (10 μM), both (LacCer+PDMP), or vehicle (vehicle), followed by activation with lipopolysaccharide (100 ng/ml) and Interferon-γ (100 Units/ml) (LPS/IFNγ) or left un-treated (control). (a) Heatmap depicting mRNA expression, as detected by Nanostring nCounter analysis, in astrocytes stimulated with LPS/IFNγ. Representative data of three independent experiments. (b) Histogram presentation of the normalized gene expression presented in (a), statistical analysis by one-way ANOVA followed by Tukey post-hoc analysis. (c-i) The expression of B4galt5 (shB4galt5), B4galt6 (shB4galt6) or non-targeting shRNA (ShControl) in C8-D30 astrocytes was knocked-down using verified shRNA (n≥4). (c) qRT analysis of B4galt5 and B4galt6 mRNA expression. (d-f) astrocytes were activated as in (a) and mRNA expression for (d) H2-Aa, (e) Ccl5 and (f) Cxcl10 was determined; expression is presented relative to house keeping gene (Gapdh) (n≥4). (g) Schematic map of the astrocyte-specific shRNA lentiviral vector. […] NOD mice were injected i.c.v. with 1×10^7 IU of shControl, shB4galt5 or shB4galt6 lentivirus, at day 35 after EAE induction (progressive phase). n=10 mice per group (h, i) 10 days after i.c.v. injection experiment was terminated and (h) b4galt5 and b4galt6 expression levels were determined by qPCR in astrocytes isolated from naïve or EAE NOD mice; expression normalized to gapdh and presented relative to that of cells from naïve mice. Representative data of two independent experiments, Statistical analysis by one-way ANOVA, followed by Tukey post-hoc analysis. (i) LacCer levels were quantified of in the CNS of naïve or EAE NOD mice treated as shown in (j). Statistical analysis by one-way ANOVA, followed by Tukey post-hoc analysis. (j) EAE clinical scores. Representative data of two independent experiments. Statistical analysis as in (FIG. 1a). (k) Cultured primary astrocytes were pre-treated for 1 h with PDMP (25 μM), LacCer (10 μM), both (LacCer+PDMP), or vehicle control (vehicle), followed by activation with LPS/IFNγ for 45 min, or left un-treated (control, Con). IRF-1 and Lamin B expression in the nuclear fraction analyzed by western blot and the degree of IRF-1 translocation to the nucleus was assessed by the ratio between the expression of IRF-1 and Lamin-B in the nuclear fractions following densitometric quantification on four independent experiments (right panel). Statistical analysis by one-way ANOVA, followed by Tukey post-hoc analysis. (l) ChIP analysis of the interaction of NF-κB, and IRF-1 with the) nos2 promoter in primary cultured astrocytes. Experimental design and data analysis as in (FIG. 4c). Data from two independent experiments (m) qPCR analysis of the expression of nos2, csf2, ccl2, ccl5, il6, and tlr2 in astrocyte cultures established from WT or IRF-1 deficient (IRF-1 KO) mice, pre-treated with LacCer or vehicle, and activated with LPS/IFNγ. […]
FIGS. 14a-g. […] (a) Cultured astrocytes were pre-treated for 1 h with PDMP (25 μM), LacCer (10 μM), both (LacCer+PDMP), or vehicle control (vehicle), followed by activation with LPS/IFNγ for 6 h, or left un-treated (control, Con). mRNA expression was analyzed 6 h following activation. qPCR analysis of the expression of cc/5, csf2, nos2, il6, H2-Aa, and tlr2 presented relative to gapdh. […]

Assay [2] concerns IRF-1. Description: IRF-1 translocation to the nucleus in astrocytes (western blot). The following applies: primary astrocytes, PDMP 25 μM or LacCer 10 μM, LPS/IFNγ 45 min.
The subject of assay [3] is Ly6C^high monocytes. Description: Response of Ly6C^high monocytes to LPS/IFNγ (nCounter). The following applies: LPS/IFNγ 6 h.

As for `CCCCCCCCCC(=O)N[C@H](CN1CCOCC1)[C@H](O)c1ccccc1` [PDMP, D-threo-1-phenyl-2-decanoylamino-3-morpholino-1-propanol], in assay [1], the “transcriptional response of astrocytes to LPS/IFNγ” value is recorded as “suppressed the transcriptional response”. The “h2-Aa, ccl5 and cxcl10 expression in B4GALT6 knocked-down astrocytes” value in assay [1] (astrocytes with shB4galt6, PDMP pre-treatment, LPS/IFNγ 6 h) is recorded as “did not further suppress”. In addition, the “translocation of IRF-1 to the nucleus” value in assay [2] is “interfered with this process”. Further, the “monocyte response to LPS/IFNγ stimulation” value in assay [3] is “did not affect”.
Consider lactosylceramide [LacCer], for which the “transcriptional response of astrocytes to LPS/IFNγ” value in assay [1] is “boosted the response”. The “astrocyte activation, LacCer added to PDMP” value in assay [1] (LacCer 10 μM + PDMP 25 μM, LPS/IFNγ) is reported as “overcame the suppressive effects of PDMP”. For the same compound, in assay [2], the “translocation of IRF-1 to the nucleus” value was “enhanced the translocation of IRF-1 to the nucleus”. In addition, the “monocyte response to LPS/IFNγ stimulation” value in assay [3] was “did not affect”.
